Tested on: bone marrow derived macrophages (BMDMs)
Test: Immunoblot of IL-1β and HO-1 in LPS-stimulated BMDMs
Format: cell-based, mouse
Method: Immunoblotting was performed as previously described with the following modifications. Briefly, cell lysates were obtained in SDS lysis buffer consisting of 2% SDS, 50 mM Tris-HCl (pH 6.8), 100 mM DTT, 5% Ficoll 400, 0.0001% bromophenol blue and a cocktail of protease inhibitors. Lysates were sonicated on ice before heating at 97 °C for 7 min to completely denature the protein. Protein concentration was determined using IR spectroscopy (which is insensitive to high SDS and DTT concentrations) with a Millipore DirectDetect spectrometer. Lysates were equally loaded at 10-15 µg per lane on BioRad TGX Criterion gels (4-15%) and resolved at 300 V in Tris-Glycine running buffer. Proteins were transferred on nitrocellulose membranes using the BioRad TransBlot turbo according to the manufacturer's instructions. Membranes were blocked in fish serum (Aqua Block) or 5% nonfat dry milk in TBS-T (0.05% Tween 20) and probed overnight at 4 °C with primary antibodies as indicated in Supplementary Table S1. The membranes were washed in TBS-T and incubated with secondary antibodies for 1 h at room temperature. After washing, semi-quantitative visualization of the proteins of interest was enabled using an enhanced chemiluminescence reagent as previously described and the Azure C400 western blot imaging system.
N-acetylcysteine (NAC) served as an antioxidant control. β-Actin was used as a loading control. B) Gene expression analysis in RAW cells treated with 1 µM of vehicle, CCTV and VTCC (peptide nanoparticle control) for 24 h. mRNA expression of mannose receptor (Mrc1), nitric oxide synthase 2 (Nos2), tumor necrosis factor (Tnf), interleukin-1beta (Il1b), and interleukin-6 (Il6) were analyzed. C) Cytokines in cell culture supernatants were analyzed as indicated. […] Metrics of chemotactic behaviour i.e. velocity, distance travelled, and chemotactic index were quantified as presented in bar graphs. […] P values are calculated by t-test and error bars are standard errors of three independent experiments.

Substance: CCTV
- HO-1 levels at high concentration (50 µM): the effect was reversed
- HO-1 levels (immunoblot) (LPS 100 ng/mL, 16 h): reduced
- IL-1β production (immunoblot) (LPS 100 ng/mL, 16 h): dose-dependent reduction of IL-1β
